Source: patent US20160279190A1, “MODULATION OF AXON DEGENERATION” (GENENTECH, INC., priority 2008, published 2016)
Entries after “also recorded” stand apart in the source; their conditions may differ. Starred links: 1 amine or outer side, 2 acyl side, 3 side chain; linkers in the order of their positions; H or OH if unused. Positions of bridges follow the written chain, without caps; N, C: chain ends. Non-standard residues stand in square brackets, D forms with d. Residues, ends and D or L forms follow the SMILES beside them. Chains are numbered I, II in the order given. Actinocin(9to1) = Cc1c2oc3c(C)ccc(C(=O)[*:1])c3nc-2c(C(=O)[*:2])c(N)c1=O; NMeV = CN[C@H](C(=O)O)C(C)C; Sar = CNCC(=O)O

How the values were obtained:
DRG explants = test: pan-JNK inhibitors in DRG explants, NGF withdrawal assay; format: cell-based; conditions: anti-NGF plus inhibitor (FIG. 46)
Description: If DLK inhibition protects neurons from degeneration through limiting the phosphorylation of JNK2 and JNK3, then inhibitors of JNK2 or JNK3 should also protect neurons from cell death and axon degeneration. The ability of direct JNK inhibition to protect neurons against NGF withdrawal-dependent degeneration was also assessed. DRG explants were treated with anti-NGF and either pan-JNK inhibitor JNKV or JNKVIII, prior to assessment in the NGF withdrawal assay described above.

DRGs [1] = test: Campenot chamber local axon degeneration, anti-NGF in axon compartment; format: cell-based, mouse; conditions: for Axon Compartment (axon protected when inhibitor is in axon compartment) / Cell Body Compartment (axon protected when inhibitor is in cell body compartment): anti-NGF in axon compartment, 28 hours
Description: Teflon dividers (Tyler Research) were cleaned by washing in water and wiping them clean of any residual grease. Dividers were then soaked in Nochromix (Godax Laboratories)/sulfuric acid overnight, rinsed five times in distilled and autoclaved water (SQ water), boiled for 30 minutes, and then air-dried before use.
Mouse laminin (5 μg/ml in sterile filtered water; Invitrogen) was added to PDL coated 35 mm dishes (BD Biosciences) and they were incubated for 1 hour at 37° C., followed by two rinses in SQ water. The dishes were vacuum-dried and then air-dried in a laminar flow hood for 15 minutes. Prepared dishes were then scored with a pin rake (Tyler Research). […] High vacuum grease (VWR) was added to each Teflon divider under a dissection scope. The laminin coated PDL dishes were inverted and dropped onto the Teflon divider, with additional pressure added by use of a toothpick in the non-track-containing regions. Dishes were incubated for 1 hour at 37° C. Five hundred microliters of NBM+MC (50 ng/ml NGF) solution was added to each of the side compartments, and a grease barrier was added in front of the center cell slot.
Free E13.5 spinal cords were dissected from mouse embryos and placed into NBM+MC (25 ng/ml NGF) solution. DRGs were detached from the spinal cord with a tungsten needle. An NBM+MC-lubricated P200 pipette was used to move DRGs into a 1.5 ml tube. DRGs were pelleted with a tabletop centrifuge for 30 seconds. The supernate was discarded and 0.05% Trypsin/EDTA (cold) was added. The pellet was resolubilized with a pipette and incubated at 37° C. for 15 minutes with constant agitation (650 RPM). The sample was again centrifuged and the supernate discarded. The pellet was resuspended in warm NBM+MC (50 ng/ml NGF) solution and triturated with a flamed glass pipette 20 times, followed by trituration with a fire-bored glass pipette another 20 times. The samples were again centrifuged and the resulting pellets were resuspended in 0.5 ml NBM+MC (50 ng/ml NGF) solution. The cells were diluted to a final concentration of 2.5×10^6 cells/ml. The cell suspensions were loaded into a 1 ml syringe with a 22 gauge needle. The center slot of the Campenot divider was filled using the syringe (to a volume of at least 50 μl). The Campenot chamber was incubated overnight at 37° C. 2.5 ml NGF+MC (50 ng/ml NGF) solution was added to the center compartment and the grease gate was removed. The outer medium (cell body compartment) was replaced after three days with 2.5 ml NBM+MC medium (with 25 ng/ml NGF). After five days in culture, one distal compartment was washed three times with warmed NBM+MC (no NGF) solution. After the third wash, 500 μl NBM+MC (no NGF) solution was added to the axon compartment in combination with either 0.5% DMSO or an inhibitor. The cell body compartment was replaced with 2.5 ml NBM+MC medium (with 25 ng/ml NGF) containing either 0.5% DMSO or inhibitor.
After 28 hours of anti-NGF antibody treatment, 8% PFA/30% sucrose solution (see above) was added directly to the culture medium at a 1:1 dilution and incubated for 30 minutes. The Teflon divider was removed after the first 15 minutes of addition. The system was washed once with 2.5 ml PBS prior to immunostaining. Neurons were blocked in 5% BSA/0.2% triton in PBS for 30 minutes. The primary antibody Tuj1 (Covance) was added to a final dilution of 1:1000 in PBS containing 2% BSA and incubated overnight at 4° C. The dish was washed once with PBS. […] The dish was washed twice with PBS, and a 22×22 mm coverslip (VWR) was added with 350 μl of fluoromount G (Electron Microscopy Sciences). The neurons were visualized by use of a fluorescence microscope.
As described above, E13.5 DRGs were isolated and grown for 5 days in a Campenot chamber.

DRGs [2] = test: anti-NGF antibody (NGF withdrawal) screen for inhibitors of neuron or axon degeneration; format: cell-based, mouse; conditions: inhibitor 100 μM or 10 μM added 1 hour before 25 μg/ml anti-NGF antibodies; 20 hours; actin staining
Description: The anti-NGF antibody model described above in Example 1 was used in a screen for inhibitors of neuron or axon degeneration. A library of more than 400 small molecules (Tocris Bioscience) was tested to see which, if any, modulate degeneration observed in the presence of anti-NGF antibodies.
Mouse E13.5 embryos were dissected and placed into L15 medium (Invitrogen). The spinal cord was dissected out from the embryos with DRGs attached. The spinal cords with DRGs attached were placed into L15 medium+5% goat serum (Gibco) on ice. The DRGs were removed using a tungsten needle and the remaining spinal cord was disposed of. Eight well slides were filled with N3-F12 solution (23 ml Ham's F12, 1 ml N3 supplement, and 1 ml 1 M glucose) to which was added 25 ng/ml NGF (Roche). (N3 supplement was made by dilution of N3 100× concentrate, which was made by mixing the following ingredients, in the following order: 5.0 ml Hank's buffered saline solution (HBSS; Ca, Mg free; Invitrogen), 1.0 ml bovine serum albumin (10 mg/ml in HBSS=150 μm), 2.0 ml Transferrin (T1147-1G, human, 100 mg/ml in HBSS=1.1 mM), 1.0 ml sodium selenite (S9133-1MG, 0.01 mg/ml in HBSS=58 μM), 0.4 ml putrescine dihydrochloride (P5780-5G, 80 mg/ml in HBSS=500 mM), 0.2 ml progesterone (P8783-5G, 0.125 mg/ml in absolute ethanol=400 μM), 0.02 ml corticosterone (C2505-500MG, 2 mg/ml in absolute ethanol=5.8 mM), 0.1 ml triiodothyonine, sodium salt (T6397-100MG, 0.2 mg/ml in 0.01 N NaOH=300 μM), 0.4 ml insulin (16634-250MG, bovine pancreas, 241 U/mg, 25 mg/ml in 20 mM HCl=4.4 mM), for a total volume of 10.02 ml (can be stored at −20° C.). An N3 supplement stock was made by combining the following: 10 ml Pen/Strep (100×, Gibco), 10 ml glutamine (200 mM, Gibco), 10 ml MEM vitamins (100×, Gibco), 10 ml N3 concentrate (100×, see above), for a total volume of 40 ml. The mixture was filter sterilized using a 0.22 μm filter, and 1-2 ml aliquots were stored at −20° C.).
The DRGs were sectioned into halves, and placed in the center of each well of an 8-chamber slide (BD Biocoat PDL/Laminin coated glass, Becton Dickinson). The DRGs were permitted to attach to the slide at room temperature for 5-10 minutes, followed by an overnight incubation at 37° C. Inhibitors of choice were added at a concentration of 100 μM (top row) or 10 μM (bottom row) 1 hour before adding anti-NGF antibodies. The anti-NGF antibodies were added to the right half of the slide (4 wells) at a concentration of 25 μg/ml. After incubation for 20 hours at 37° C., the slides were fixed with 30% sucrose/8% paraformaldehyde (PFA) by adding 250 μl of the fix solution directly to the 250 μl of culture medium. (To make the 30% sucrose/8% PFA solution, the following ingredients were added to a 600 ml beaker including a stir bar: 250 ml 16% PFA (cat#15710-S, Electron Microscopy Sciences), 50 ml 10×PBS pH 7.4, and 150 g sucrose. The solution was mixed under low heat until dissolved, and then 6-8 drops of 1 M NaOH were added to bring the pH to 7.4. The volume was then brought to 500 ml with water in a graduated cylinder. The solution was mixed well, placed in aliquots, and frozen.) The slides were fixed for 30 minutes, followed by washing once with PBS. All cells were labeled with an actin stain (Alexa-568 conjugated phalloidin; 1:40; Invitrogen), a membrane dye (DiO; 1:200; Invitrogen), and a DNA stain (Hoechst 33258; 1:10,000; Invitrogen) in 0.1% Triton and 1% goat serum for 2 hours at room temperature. […]

[3] = inhibitor 15 μM, listed as Act D

N#C/C(=C1/Nc2ccccc2S1)c1ccnc(NCCc2cccnc2)n1 [JNKV]
most protective concentration (DRG explants): 5 µM | protection of DRG explants from NGF-dependent degeneration (DRG explants): able to protect DRG explants from NGF-dependent degeneration

O=C1NC(=O)C(c2cn(CCCO)c3ncccc23)=C1c1cnccn1 [GSK3 inhibitor XI]
Axon Compartment (axon protected when inhibitor is in axon compartment) (DRGs [1]; inhibitor 30 μM): No (2) | Cell Body Compartment (axon protected when inhibitor is in cell body compartment) (DRGs [1]; inhibitor 30 μM): Yes (2)

Cc1c2oc3c(C)ccc(C(=O)N[C@@H]4C(=O)N[C@H](C(C)C)C(=O)N5CCC[C@H]5C(=O)N(C)CC(=O)N(C)[C@@H](C(C)C)C(=O)O[C@@H]4C)c3nc-2c(C(=O)N[C@@H]2C(=O)N[C@H](C(C)C)C(=O)N3CCC[C@H]3C(=O)N(C)CC(=O)N(C)[C@@H](C(C)C)C(=O)O[C@@H]2C)c(N)c1=O [Actinomycin D] (I: T[dV]P[Sar][NMeV] / II: T[dV]P[Sar][NMeV]; ester I:1-I:C, II:1-II:C; linker I:N-II:N via Actinocin(9to1))
formation of varicosities in locally NGF-deprived axons (DRGs [1]; cell body inhibitors added to cell body compartment: 30 μM SB415, 15 μM Act D): large number of axons with varicosities, as well as fragmented axons | Axon Compartment (axon protected when inhibitor is in axon compartment) (DRGs [1]; inhibitor 15 μM): No (4) | Cell Body Compartment (axon protected when inhibitor is in cell body compartment) (DRGs [1]; inhibitor 15 μM): Yes (4) | Axon Compartment (axon protected when inhibitor is in axon compartment) (DRGs [1]; [3]): failed to prevent degeneration | Cell Body Compartment (axon protected when inhibitor is in cell body compartment) (DRGs [1]; [3]): did not degenerate; also recorded: protected from local degeneration

CC(NC(=O)/C(C#N)=C/c1ccc(O)c(O)c1)c1ccccc1 (centres unmarked) [Tyrphostin B44]
Comments (observations on protection against neurodegeneration upon NGF withdrawal) (DRGs [2]): Partial

CCN(c1ccccc1)c1cc(NC)[n+](C)c(C)n1.[Cl-] [ZD7288]
Axon Compartment (axon protected when inhibitor is in axon compartment) (DRGs [1]; inhibitor 5 μM): No (3) | Cell Body Compartment (axon protected when inhibitor is in cell body compartment) (DRGs [1]; inhibitor 5 μM): Yes (3)

CCOc1nc(NC(=O)Cc2cc(OC)ccc2OC)cc(N)c1C#N [JNKVIII]
most protective concentration (DRG explants): 4 µM | protection of DRG explants from NGF-dependent degeneration (DRG explants): able to protect DRG explants from NGF-dependent degeneration

C[C@@H]1C[C@@H]([C@H](O)CC2CC(=O)NC(=O)C2)C(=O)[C@@H](C)C1 [Cycloheximide]
Axon Compartment (axon protected when inhibitor is in axon compartment) (DRGs [1]; inhibitor 5 μM): No (2) | Cell Body Compartment (axon protected when inhibitor is in cell body compartment) (DRGs [1]; inhibitor 5 μM): Yes (2)

C=C[C@@]1(C)CC(=O)[C@]2(O)[C@@]3(C)[C@@H](O)CCC(C)(C)[C@@H]3[C@H](OC(=O)CCN(C)C)[C@H](OC(C)=O)[C@@]2(C)O1 [NKH 477]
Comments (observations on protection against neurodegeneration upon NGF withdrawal) (DRGs [2]): Partial

C=C[C@@]1(C)CC(=O)[C@]2(O)[C@@]3(C)[C@@H](O)CCC(C)(C)[C@@H]3[C@H](O)[C@H](OC(C)=O)[C@@]2(C)O1 [Forskolin]
Axon Compartment (axon protected when inhibitor is in axon compartment) (DRGs [1]; inhibitor 3 μM): Yes (2) | Cell Body Compartment (axon protected when inhibitor is in cell body compartment) (DRGs [1]; inhibitor 3 μM): Yes (2)

COc1ccc(CNC(=O)Nc2ncc([N+](=O)[O-])s2)cc1 [AR-A014418]
Axon Compartment (axon protected when inhibitor is in axon compartment) (DRGs [1]; inhibitor 20 μM): No (1) | Cell Body Compartment (axon protected when inhibitor is in cell body compartment) (DRGs [1]; inhibitor 20 μM): Yes (1)

OC(CN1CCNCC1)Cn1c2ccc(Br)cc2c2cc(Br)ccc21 (centres unmarked) [Bax Channel Blocker]
Comments (observations on protection against neurodegeneration upon NGF withdrawal) (DRGs [2]): Cell bodies detach

C[S+]([O-])c1ccc(-c2nc(-c3ccc(F)cc3)c(-c3ccncc3)[nH]2)cc1.Cl (centres unmarked) [SB 203580 HCI]
Comments (observations on protection against neurodegeneration upon NGF withdrawal) (DRGs [2]): Partial
